# Starred links: 1 amine or outer side, 2 acyl side, 3 side chain; linkers in the order of their positions; H or OH if unused. Positions of bridges follow the written chain, without caps; N, C: chain ends. Non-standard residues stand in square brackets, D forms with d. Residues, ends and D or L forms follow the SMILES beside them. ξ: configuration not given here. *: point of attachment. X35 = CC(C(N[*:1])C(=O)[*:2])N(Cc1ccc(O)cc1)Cc1ccc(O)cc1; X22 = CC(NC(=O)[C@H](N)CO)C(N[*:1])C(=O)[*:2]; ξAbu(βξ-NH2) = CC(N[*:3])C(N[*:1])C(=O)[*:2]; X23 = CC(NCc1ccc(O)cc1)C(N[*:1])C(=O)[*:2]; X36 = CC(NC(=O)CN(C)C)C(N[*:1])C(=O)[*:2]; Pentadecanoyl = CCCCCCCCCCCCCCC(=O)*; ξAsp(βξ-Me) = CC(C(=O)O)C(N)C(=O)O; ξAbu(3ξ-NH2) = CC(N)C(N)C(=O)O; NH(CH2)11CH3 = CCCCCCCCCCCCN*; Pip = O=C(O)[CH]1CCCCN1; ξD = NC(CC(=O)O)C(=O)O; ξPip = O=C(O)C1CCCCN1; CO = O=C([*:1])[*:2]; ξV = CC(C)C(N)C(=O)O; ξP = O=C(O)C1CCCN1
# Test system: Staphylococcus aureus (MSSA)
# Details: 24 h
# In short: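 Broth microdilution MIC per NCCLS M7-A6 with doubling serial dilutions, in cation-adjusted Mueller-Hinton broth supplemented with 0.625 mM calcium.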
row,SMILES,MIC [µg/mL]
1,"CCCCCCCCNC(=O)NC(CC(=O)O)C(=O)NC1C(=O)N2CCCCC2C(=O)NC(C(C)C(=O)O)C(=O)NC(CC(=O)O)C(=O)NCC(=O)NC(CC(=O)O)C(=O)NCC(=O)NC(C(C)N)C(=O)NC(C(C)C)C(=O)N2CCCC2C(=O)NC1C (centres unmarked) [Compound 252, CH3—(CH2)7—NH—C(═O)-Amphomycin]",32
2,"CCCCCCCCCCCCNC(=O)NCC(=O)NC(CC(=O)O)C(=O)NC1C(=O)N2CCCCC2C(=O)NC(C(C)C(=O)O)C(=O)NC(CC(=O)O)C(=O)NCC(=O)NC(CC(=O)O)C(=O)NCC(=O)NC(C(C)N)C(=O)NC(C(C)C)C(=O)N2CCCC2C(=O)NC1C (stereo not drawn) [Compound 254, CH3—(CH2)11—NH—C(═O)-Gly-Amphomycin] ({NH(CH2)11CH3-CO}-GD[ξAbu(βξ-NH2)][Pip][ξAsp(βξ-Me)]DGDG[ξAbu(3ξ-NH2)]VP; lactam 3-C; configuration not given here)",2 to 4
3,"CCCCCCCCCCCCCCC(=O)NC(CC(=O)O)C(=O)NC1C(=O)N2CCCCC2C(=O)NC(C(C)C(=O)O)C(=O)NC(CC(=O)O)C(=O)NCC(=O)NC(CC(=O)O)C(=O)NCC(=O)NC(C(C)NC(=O)[C@H](N)CO)C(=O)NC(C(C)C)C(=O)N2CCCC2C(=O)NC1C (stereo partly drawn) [Compound 262, C15-Amphomycin-(D-Ser)] (Pentadecanoyl-[ξD][ξAbu(βξ-NH2)][ξPip][ξAsp(βξ-Me)][ξD]G[ξD]G[X22][ξV][ξP]; lactam 2-C)",4
4,"CCCCCCCCCCCCCCC(=O)NC(CC(=O)O)C(=O)NC1C(=O)N2CCCCC2C(=O)NC(C(C)C(=O)O)C(=O)NC(CC(=O)O)C(=O)NCC(=O)NC(CC(=O)O)C(=O)NCC(=O)NC(C(C)NC(=O)[C@H](N)Cc2ccc(O)cc2)C(=O)NC(C(C)C)C(=O)N2CCCC2C(=O)NC1C (stereo partly drawn) [Compound 263, C15-Amphomycin-(D-Tyr)]",32
5,"CCCCCCCCCCCCCCC(=O)NC(CC(=O)O)C(=O)NC1C(=O)N2CCCCC2C(=O)NC(C(C)C(=O)O)C(=O)NC(CC(=O)O)C(=O)NCC(=O)NC(CC(=O)O)C(=O)NCC(=O)NC(C(C)NC(=O)[C@H](N)Cc2c[nH]c3ccccc23)C(=O)NC(C(C)C)C(=O)N2CCCC2C(=O)NC1C (stereo partly drawn) [Compound 264, C15-Amphomycin-(D-Trp)]",8
6,"CCCCCCCCCCCCCCC(=O)NC(CC(=O)O)C(=O)NC1C(=O)N2CCCCC2C(=O)NC(C(C)C(=O)O)C(=O)NC(CC(=O)O)C(=O)NCC(=O)NC(CC(=O)O)C(=O)NCC(=O)NC(C(C)NCc2ccc(O)cc2)C(=O)NC(C(C)C)C(=O)N2CCCC2C(=O)NC1C (stereo not drawn) [Compound 266, C15-Amphomycin-9-(4-Hydroxybenzyl)] (Pentadecanoyl-D[ξAbu(βξ-NH2)][Pip][ξAsp(βξ-Me)]DGDG[X23]VP; lactam 2-C; configuration not given here)",8 to 16
7,"CCCCCCCCCCCCCCC(=O)NC(CC(=O)O)C(=O)NC1C(=O)N2CCCCC2C(=O)NC(C(C)C(=O)O)C(=O)NC(CC(=O)O)C(=O)NCC(=O)NC(CC(=O)O)C(=O)NCC(=O)NC(C(C)N(Cc2ccc(O)cc2)Cc2ccc(O)cc2)C(=O)NC(C(C)C)C(=O)N2CCCC2C(=O)NC1C (stereo not drawn) [Compound 267, C15-Amphomycin-9-N,N-di-(p-Hydroxybenzyl)] (Pentadecanoyl-D[ξAbu(βξ-NH2)][Pip][ξAsp(βξ-Me)]DGDG[X35]VP; lactam 2-C; configuration not given here)",8
8,"CCCCCCCCCCCCCCC(=O)NC(CC(=O)O)C(=O)NC1C(=O)N2CCCCC2C(=O)NC(C(C)C(=O)O)C(=O)NC(CC(=O)O)C(=O)NCC(=O)NC(CC(=O)O)C(=O)NCC(=O)NC(C(C)NC(=O)CN(C)C)C(=O)NC(C(C)C)C(=O)N2CCCC2C(=O)NC1C (stereo not drawn) [Compound 268, C15-Amphomycin-9-(N,N-Dimethylglycine)] (Pentadecanoyl-D[ξAbu(βξ-NH2)][Pip][ξAsp(βξ-Me)]DGDG[X36]VP; lactam 2-C; configuration not given here)",1
